# Experimental data from patent US20240316078A1, “Treatment of Neuropathic Sensitization Disorders” (IVIEW Therapeutics, Inc., priority 2021, published 2024).
# Several values for one entry are separate records, joined by “and”; a condition that tells them apart may be missing. Equal entries are not always repeated.
# How the values were obtained:
# [1] = test system: patients with DE-associated NOP; assay: Clinical dry eye parameters (OSDI, TBUT, Schirmer test, corneal staining) in pilot study; format: in vivo, human; conditions: C3 2 mg/mL eyelid wipe 4 times/day, 1-month, mean ± SD
# Source text: (§1) Patients with DE accompanied by NOP features, who underwent evaluation between January and December in 2018, were enrolled. DE was diagnosed based on OSDI score ≥13 and tear break-up time (TBUT) ≤7 s. The inclusion criteria were as follows: (1) chronic ocular pain which was unresponsive to conventional topical agents (i.e. lubricants, anti-inflammatories, secretagogues, etc.) for >3 months; (2) discordance between the painful DE symptoms and signs accompanying with specific descriptors, including burning or stinging; and (3) a Wong-Baker FACES Pain Rating Scale (WBFPS) score […].
# (§2) The patients were treated with add-on C3 while undergoing conventional topical treatment. C3 samples (2 mg/mL) were diluted in purified water, soaked in gauze, and packaged using automated equipment. The patients applied topical C3 by wiping the gauze on the closed eyelid margin, 4 times/day for 1 month (FIG. 1).
# The OSDI questionnaire which ranged from 0 to 100 was used to quantify the vision-related QoL. TBUT (tear breakup time), the time interval between the last complete blink and the first appearance of disruption of the tear film, was measured thrice and the mean value was used for analysis. Corneal staining scores were assessed using the area-density index, by multiplying the area and density score. The Schirmer test score represented the length of wetting, and was measured using a calibrated sterile strip placed at the lateral canthus for 5 min under topical anesthesia (0.5% proparacaine). Only the score of the right eye was assessed.
# (§3) Statistical analyses were conducted using PASW Statistics for Windows, Version 18.0 (SPSS Inc., Chicago, IL, USA). The normality of distribution was assessed using the Shapiro-Wilk test. The Wilcoxon signed-rank test and repeated-measures analysis of variance with Bonferroni's post-hoc test were used for comparing parameters before and after treatment. A P<0.05 was considered statistically significant.
# [2] = test system: patients with DE-associated NOP; assay: Wong-Baker FACES Pain Rating Scale (WBFPS) in enrolled patients; format: in vivo, human; conditions: individual patients No. 1-15
# Source text: as §1
# The patients were treated with add-on C3 while undergoing conventional topical treatment. […]
# The WBFPS was chosen to screen the pain severity in the patients with DE. […] The questions were divided into sections for analysis: questions 4-9, pertained to eye pain intensity (0 to 60); questions 10-11, pertained to non-eye pain (0 to 20); questions 13-19 (0-10, total score 0 to 60), assessed the QoL (reading and/or computer use, driving and/or watching TV, general activity, mood, sleep, and enjoying life/relations with other people); questions 20-21 (each score 0-1, total score 0-2), assessed aggravating factors (mechanical and chemical stimuli); and questions 22-25 (each score 0-1, total score 0-4), assessed associated factors (redness; burning; sensitivity to light; and tearing). […]
# patients with mild DE = conditions: cited from earlier work
# [3] = test system: patients with DE accompanying NOP features; assay: Pilot study: discontinuation, safety and onset of effect; format: in vivo, human
# Experimental: (§4) This prospective non-randomized pilot study was conducted in accordance with the tenets of the Declaration of Helsinki. Ethical approval was obtained from the Chonnam National University Hospital Institutional Review Board (CNUH-2018-274). Informed consent was obtained from all included patients. The sample size was calculated using the G*Power software (version 3.1.9.4; Heinrich-Heine University, Germany) with a level of α=0.05 and a power of 95% to detect a 2-point difference in pain scales. Accordingly, a total sample size of 13 patients was found sufficient.
# as §2
# This study enrolled 20 patients with DE accompanying NOP features. Five patients (25.0%) discontinued the treatment because of drug ineffectiveness or intolerance. The remaining 15 patients (75.0%) were included in the analysis. Their mean age was 59.5±13.0 years, and nine patients (60.0%) were women.
# [4] = test system: patients with DE-associated NOP; assay: Ocular Pain Assessment Survey (OPAS) in pilot study of topical cryosim-3; format: in vivo, human; conditions: C3 2 mg/mL eyelid wipe 4 times/day, mean ± SD, 15 patients; for OPAS Tearing (0-1): baseline 0.36 ± 0.29; for OPAS Redness (0-1): baseline 0.41 ± 0.32; for OPAS Chemical stimuli (0-1): baseline 0.47 ± 0.35; for OPAS Burning sensation (0-1): baseline 0.57 ± 0.37; for OPAS Mechanical stimuli (0-1): baseline 0.63 ± 0.29; for OPAS Sensitivity to light (0-1): baseline 0.76 ± 0.24; for OPAS Aggravating factors (total 0-2): baseline 1.11 ± 0.49; for OPAS Associated factors (total 0-4): baseline 2.09 ± 0.76; for OPAS General activity (walking, etc.) (0-10): baseline 4.00 ± 3.18; for OPAS Sleep (0-10): baseline 4.27 ± 3.81; for OPAS Enjoying life/relations with other people (0-10): baseline 5.07 ± 2.84; for OPAS Mood (0-10): baseline 5.40 ± 2.77; for OPAS Driving and/or watching TV (0-10): baseline 6.80 ± 2.31; for OPAS Non-eye pain (0-20): baseline 7.67 ± 6.22; for OPAS Reading and/or computer use (0-10): baseline 7.79 ± 1.76; for OPAS Eye pain intensity (0-60): baseline 30.60 ± 12.84; for OPAS Quality of life (total 0-60): baseline 33.53 ± 14.24
# Experimental: as §4, §1, §2
# The WBFPS was chosen to screen the pain severity in the patients with DE. The patients chose the face that best depicted the pain they were experiencing. At baseline, 1 week, and 1 month after treatment, the patients also completed the OPAS which is a validated questionnaire for neuropathic pain as previously described. The questions were divided into sections for analysis: questions 4-9, pertained to eye pain intensity (0 to 60); questions 10-11, pertained to non-eye pain (0 to 20); questions 13-19 (0-10, total score 0 to 60), assessed the QoL (reading and/or computer use, driving and/or watching TV, general activity, mood, sleep, and enjoying life/relations with other people); questions 20-21 (each score 0-1, total score 0-2), assessed aggravating factors (mechanical and chemical stimuli); and questions 22-25 (each score 0-1, total score 0-4), assessed associated factors (redness; burning; sensitivity to light; and tearing). The section on symptomatic relief of the OPAS was excluded, and only questions 4-25 were analyzed. The questions were divided into 5 sections as follows: eye pain intensity, non-eye pain, QoL, aggravating factors, and associated factors.
# as §3
# [5] = topical C3 in DE, previous study
smiles,measurement,setting,value
"CCCCCCCCCP(=O)(C(C)C)C(C)C [cryosim-3, 1-[Diisopropyl-phosphinoyl]-nonane]",Schirmer test score,"[1]; 5 min under topical anesthesia, baseline 7.07 ± 2.76",8.47 ± 2.80 mm
same,Corneal staining score (0-9),[1]; baseline 0.60 ± 0.91,0.13 ± 0.35
same,Tear break-up time,[1]; baseline 4.13 ± 0.83,4.00 ± 0.85 s
same,Ocular surface disease index,"[1]; scale 0 to 100, baseline 57.5 ± 13.8",40.2 ± 12.6
same,WBFPS score,[2]; 1 month of add-on C3 2 mg/mL eyelid wipe 4 times/day,2 and 5 (4×) and 6 (2×) and 3 and 4 (3×) and 1 (3×) and 7
same,WBFPS score,[2]; 1 week of add-on C3 2 mg/mL eyelid wipe 4 times/day,1 (4×) and 7 (3×) and 6 (5×) and 3 and 5 (2×)
same,effect on basal tear secretion,patients with mild DE; [5],increasing basal tear secretion
same,effect on ocular discomfort,patients with mild DE; [5],alleviating ocular discomfort without any complications
same,duration of painless cooling sensation after wiping,patients with mild DE; wiping of C3,approximately 40 minutes
same,patients who discontinued the treatment because of drug ineffectiveness or intolerance,[3]; five of 20 enrolled patients,25.0%
same,time to improvement of ocular pain after C3 treatment,[3]; patients unresponsive to conventional treatment (122.7 days),≤ 1 week
same,safety and effectiveness of topical application to the eyelid in relieving NOP,[3]; patients with DE,safe and effective
same,OPAS Tearing (0-1),[4]; 1-month,0.21 ± 0.27
same,OPAS Redness (0-1),[4]; 1-month,0.39 ± 0.30
same,OPAS Chemical stimuli (0-1),[4]; 1-month,0.41 ± 0.32
same,OPAS Burning sensation (0-1),[4]; 1-month,0.29 ± 0.29
same,OPAS Mechanical stimuli (0-1),[4]; 1-month,0.47 ± 0.26
same,OPAS Sensitivity to light (0-1),[4]; 1-month,0.59 ± 0.28
same,OPAS Aggravating factors (total 0-2),[4]; 1-month,0.88 ± 0.57
same,OPAS Associated factors (total 0-4),[4]; 1-month,1.58 ± 0.93
same,"OPAS General activity (walking, etc.) (0-10)",[4]; 1-month,3.20 ± 2.86
same,OPAS Sleep (0-10),[4]; 1-month,2.73 ± 3.81
same,OPAS Enjoying life/relations with other people (0-10),[4]; 1-month,4.27 ± 3.03
same,OPAS Mood (0-10),[4]; 1-month,4.40 ± 2.47
same,OPAS Driving and/or watching TV (0-10),[4]; 1-month,5.60 ± 2.90
same,OPAS Non-eye pain (0-20),[4]; 1-month,5.47 ± 5.62
same,OPAS Reading and/or computer use (0-10),[4]; 1-month,6.93 ± 2.59
same,OPAS Eye pain intensity (0-60),[4]; 1-month,21.53 ± 10.84
same,OPAS Quality of life (total 0-60),[4]; 1-month,27.17 ± 16.06
same,OPAS Tearing (0-1),[4]; 1-week,0.17 ± 0.18
same,OPAS Redness (0-1),[4]; 1-week,0.41 ± 0.30
same,OPAS Chemical stimuli (0-1),[4]; 1-week,0.41 ± 0.35
same,OPAS Burning sensation (0-1),[4]; 1-week,0.40 ± 0.33
same,OPAS Mechanical stimuli (0-1),[4]; 1-week,0.47 ± 0.25
same,OPAS Sensitivity to light (0-1),[4]; 1-week,0.57 ± 0.26
same,OPAS Aggravating factors (total 0-2),[4]; 1-week,0.87 ± 0.56
same,OPAS Associated factors (total 0-4),[4]; 1-week,1.55 ± 0.85
same,"OPAS General activity (walking, etc.) (0-10)",[4]; 1-week,3.27 ± 2.71
same,OPAS Sleep (0-10),[4]; 1-week,2.93 ± 3.67
same,OPAS Enjoying life/relations with other people (0-10),[4]; 1-week,4.33 ± 2.97
same,OPAS Mood (0-10),[4]; 1-week,4.53 ± 2.50
same,OPAS Driving and/or watching TV (0-10),[4]; 1-week,5.27 ± 2.52
same,OPAS Non-eye pain (0-20),[4]; 1-week,6.73 ± 6.18
same,OPAS Reading and/or computer use (0-10),[4]; 1-week,7.14 ± 2.48
same,OPAS Eye pain intensity (0-60),[4]; 1-week,26.47 ± 11.45
same,OPAS Quality of life (total 0-60),[4]; 1-week,27.60 ± 15.49
